Measurements as given in ChEMBL document CHEMBL3046293, “Fungicidal Activities of -Methoxyphenylacetic Acid Derivatives” (2002).

Experiments:
Assay type in all cases: functional
[1] = system: Pyricularia oryzae; experiment: Fungicidal activity against Magnaporthe oryzae Cav. race 003 assessed as rice blast disease control at 500 ppm treated 24 hr before inoculation by preventive manner
[2] = system: Botrytis cinerea; experiment: Fungicidal activity against Botryotinia fuckeliana assessed as cucumber gray mold disease control at 500 ppm treated 24 hr before inoculation by preventive manner
[3] = system: Podosphaera fuliginea; experiment: Fungicidal activity against Podosphaera fuliginea assessed as cucumber powdery mildew disease control at 500 ppm treated 24 hr before inoculation by preventive manner
[4] = system: Podosphaera fuliginea; experiment: Fungicidal activity against Podosphaera fuliginea assessed as cucumber powdery mildew disease control at 125 ppm treated 24 hr before inoculation by preventive manner
[5] = system: Podosphaera fuliginea; experiment: Fungicidal activity against Podosphaera fuliginea assessed as cucumber powdery mildew disease control at 31.3 ppm treated 24 hr before inoculation by preventive manner
[6] = system: Pyricularia oryzae; experiment: Fungicidal activity against Magnaporthe oryzae Cav. race 003 assessed as rice blast disease control at 125 ppm treated 24 hr before inoculation by preventive manner
[7] = system: Podosphaera fuliginea; experiment: Fungicidal activity against Podosphaera fuliginea assessed as cucumber powdery mildew disease control at 7.8 ppm treated 24 hr before inoculation by preventive manner
[8] = system: Botrytis cinerea; experiment: Fungicidal activity against Botryotinia fuckeliana assessed as cucumber gray mold disease control at 7.8 ppm treated 24 hr before inoculation by preventive manner
[9] = system: Podosphaera fuliginea; experiment: Fungicidal activity against Podosphaera fuliginea assessed as cucumber powdery mildew control at 0.125 ppm foliar application 24 hr after inoculation by curative manner
[10] = system: Podosphaera fuliginea; experiment: Fungicidal activity against Podosphaera fuliginea assessed as cucumber powdery mildew control at 0.5 ppm foliar application 24 hr after inoculation by curative manner
[11] = system: Podosphaera fuliginea; experiment: Fungicidal activity against Podosphaera fuliginea assessed as cucumber powdery mildew control at 2 ppm foliar application 24 hr after inoculation by curative manner
[12] = system: Podosphaera fuliginea; experiment: Fungicidal activity against Podosphaera fuliginea assessed as cucumber powdery mildew control at 7.8 ppm foliar application 24 hr after inoculation by curative manner
[13] = system: Podosphaera fuliginea; experiment: Fungicidal activity against Podosphaera fuliginea assessed as cucumber powdery mildew control at 0.125 ppm foliar application 24 hr before inoculation by preventive manner
[14] = system: Podosphaera fuliginea; experiment: Fungicidal activity against Podosphaera fuliginea assessed as cucumber powdery mildew control at 0.5 ppm foliar application 24 hr before inoculation by preventive manner
[15] = system: Podosphaera fuliginea; experiment: Fungicidal activity against Podosphaera fuliginea assessed as cucumber powdery mildew control at 2 ppm foliar application 24 hr before inoculation by preventive manner
[16] = system: Podosphaera fuliginea; experiment: Fungicidal activity against Podosphaera fuliginea assessed as cucumber powdery mildew control at 7.8 ppm foliar application 24 hr before inoculation by preventive manner
[17] = system: Thanatephorus cucumeris; experiment: Fungicidal activity against Thanatephorus cucumeris assessed as rice sheath blight disease control at 2 ppm foliar application for 24 hr after inoculation by curative manner
[18] = system: Thanatephorus cucumeris; experiment: Fungicidal activity against Thanatephorus cucumeris assessed as rice sheath blight disease control at 7.8 ppm foliar application for 24 hr after inoculation by curative manner
[19] = system: Thanatephorus cucumeris; experiment: Fungicidal activity against Thanatephorus cucumeris assessed as rice sheath blight disease control at 31.3 ppm foliar application for 24 hr after inoculation by curative manner
[20] = system: Thanatephorus cucumeris; experiment: Fungicidal activity against Thanatephorus cucumeris assessed as rice sheath blight disease control at 125 ppm foliar application for 24 hr after inoculation by curative manner
[21] = system: Thanatephorus cucumeris; experiment: Fungicidal activity against Thanatephorus cucumeris assessed as rice sheath blight disease control at 2 ppm foliar application for 24 hr before inoculation by preventive manner
[22] = system: Thanatephorus cucumeris; experiment: Fungicidal activity against Thanatephorus cucumeris assessed as rice sheath blight disease control at 7.8 ppm foliar application for 24 hr before inoculation by preventive manner
[23] = system: Thanatephorus cucumeris; experiment: Fungicidal activity against Thanatephorus cucumeris assessed as rice sheath blight disease control at 31.3 ppm foliar application for 24 hr before inoculation by preventive manner
[24] = system: Thanatephorus cucumeris; experiment: Fungicidal activity against Thanatephorus cucumeris assessed as rice sheath blight disease control at 125 ppm foliar application for 24 hr before inoculation by preventive manner

SMILES | Activity [1] [%] | Activity [2] [%] | Activity [3] [%] | further results
CNC(=O)C(OC)c1cccc(Oc2ccccc2)c1 (centres undefined) | <90 | <50 | <90 | 
CNC(=O)C(OC)c1cccc(Oc2cccc(C)c2)c1 (centres undefined) | <90 | <50 | <90 | 
CNC(=O)C(OC)c1cccc(Oc2ccc(C)cc2)c1 (centres undefined) | <90 | <50 | <90 | 
CNC(=O)C(OC)c1cccc(Oc2ccc(C)c(C)c2)c1 (centres undefined) | <90 | <50 |  | Activity [4]: 90%
CNC(=O)C(OC)c1cccc(Oc2cc(C)cc(C)c2)c1 (centres undefined) | <90 | <50 |  | Activity [5]: 90%
COC(=O)C(OC)c1cccc(Oc2ccc(C)c(C)c2)c1 (centres undefined) | <90 | <50 | 90 | 
COC(=O)C(OC)c1cccc(Oc2cc(C)cc(C)c2)c1 (centres undefined) | <90 | <50 | 90 | 
COC(=O)C(OC)c1cccc(COc2ccccc2)c1 (centres undefined) | <90 | <50 |  | Activity [4]: 90%
COC(=O)C(OC)c1cccc(COc2ccccc2Cl)c1 (centres undefined) |  | 50 |  | Activity [6]: 90%; Activity [4]: 90%
COC(=O)C(OC)c1cccc(COc2ccc(Cl)cc2)c1 (centres undefined) | <90 | <50 |  | Activity [4]: 90%
COC(=O)C(OC)c1cccc(COc2ccccc2C)c1 (centres undefined) |  | 50 |  | Activity [6]: 90%; Activity [4]: 90%
COC(=O)C(OC)c1cccc(COc2cccc(C)c2)c1 (centres undefined) | <90 | <50 |  | Activity [4]: 90%
COC(=O)C(OC)c1cccc(COc2ccc(C)cc2)c1 (centres undefined) | <90 | <50 |  | Activity [4]: 90%
CCc1ccccc1OCc1cccc(C(OC)C(=O)OC)c1 (centres undefined) | <90 | <50 | <90 | 
COC(=O)C(OC)c1cccc(COc2ccc(Cl)cc2Cl)c1 (centres undefined) | <90 | <50 |  | Activity [7]: 90%
COC(=O)C(OC)c1cccc(COc2cc(Cl)cc(Cl)c2)c1 (centres undefined) | <90 | <50 |  | Activity [4]: 90%
COC(=O)C(OC)c1cccc(COc2cccc(C)c2C)c1 (centres undefined) | 90 | <50 | <90 | 
COC(=O)C(OC)c1cccc(COc2ccc(C)cc2C)c1 (centres undefined) | 90 | 50 | <90 | 
COC(=O)C(OC)c1cccc(COc2cc(C)ccc2C)c1 (centres undefined) |  | 50 | <90 | Activity [6]: 90%
CNC(=O)C(OC)c1cccc(COc2ccccc2)c1 (centres undefined) | <90 | 50 |  | Activity [4]: 90%
CNC(=O)C(OC)c1cccc(COc2ccccc2F)c1 (centres undefined) | 90 | 50 |  | Activity [5]: 90%
CNC(=O)C(OC)c1cccc(COc2ccccc2Cl)c1 (centres undefined) | 90 | <50 |  | Activity [7]: 90%
CNC(=O)C(OC)c1cccc(COc2cccc(Cl)c2)c1 (centres undefined) | <90 | 50 |  | Activity [5]: 90%
CNC(=O)C(OC)c1cccc(COc2ccc(Cl)cc2)c1 (centres undefined) | <90 | <50 |  | Activity [5]: 90%
CNC(=O)C(OC)c1cccc(COc2ccccc2C)c1 (centres undefined) | 90 |  |  | Activity [7]: 90%; Activity [8]: 50%
CNC(=O)C(OC)c1cccc(COc2cccc(C)c2)c1 (centres undefined) | 90 | <50 |  | Activity [4]: 90%
CNC(=O)C(OC)c1cccc(COc2ccc(C)cc2)c1 (centres undefined) | 90 | <50 |  | Activity [5]: 90%

SMILES | Activity [1] [%] | Activity [2] [%] | Activity [3] [%] | further results
CCc1ccccc1OCc1cccc(C(OC)C(=O)NC)c1 (centres undefined) |  | 50 |  | Activity [6]: 90%; Activity [7]: 90%
CNC(=O)C(OC)c1cccc(COc2ccccc2OC)c1 (centres undefined) | <90 | <50 | <90 | 
CNC(=O)C(OC)c1cccc(COc2ccc(Cl)cc2Cl)c1 (centres undefined) | <90 | <50 |  | Activity [7]: 90%
CNC(=O)C(OC)c1cccc(COc2cc(Cl)cc(Cl)c2)c1 (centres undefined) | <90 | <50 |  | Activity [5]: 90%
CNC(=O)C(OC)c1cccc(COc2cccc(C)c2C)c1 (centres undefined) |  |  |  | Activity [6]: 90%; Activity [7]: 90%; Activity [8]: 50%
CNC(=O)C(OC)c1cccc(COc2c(C)cccc2C)c1 (centres undefined) | <90 | <50 | <90 | 
CNC(=O)C(OC)c1cccc(COc2ccc(C)c(C)c2)c1 (centres undefined) |  | 50 |  | Activity [6]: 90%; Activity [5]: 90%
CNC(=O)C(OC)c1cccc(COc2ccc(C)cc2Cl)c1 (centres undefined) |  | 50 |  | Activity [6]: 90%; Activity [7]: 90%
CNC(=O)C(OC)c1cccc(COc2cc(C)ccc2Cl)c1 (centres undefined) |  |  |  | Activity [6]: 90%; Activity [7]: 90%; Activity [8]: 50%
CNC(=O)C(OC)c1cccc(COc2ccc(Cl)cc2C)c1 (centres undefined) |  |  |  | Activity [6]: 90%; Activity [7]: 90%; Activity [8]: 50%
CNC(=O)C(OC)c1cccc(COc2ccc(C)cc2OC)c1 (centres undefined) | <90 | 50 | <90 | 
CCOC(C(=O)NC)c1cccc(COc2cc(C)ccc2C)c1 (centres undefined) | <90 | <50 |  | Activity [7]: 90%
CCCCOC(C(=O)NC)c1cccc(COc2cc(C)ccc2C)c1 (centres undefined) | <90 | <50 |  | Activity [5]: 90%
CNC(=O)C(OC(C)=O)c1cccc(COc2cc(C)ccc2C)c1 (centres undefined) | <90 | <50 | <90 | 
CNC(=O)C(OCOC)c1cccc(COc2cc(C)ccc2C)c1 (centres undefined) | <90 | <50 | <90 | 
COC(C(=O)O)c1cccc(COc2cc(C)ccc2C)c1 (centres undefined) | 90 | <50 |  | Activity [7]: 90%
COC(C(=O)SC)c1cccc(COc2cc(C)ccc2C)c1 (centres undefined) | <90 | <50 | <90 | 
CCCCNC(=O)C(OC)c1cccc(COc2cc(C)ccc2C)c1 (centres undefined) | <90 | <50 | <90 | 
COC(C(N)=O)c1cccc(COc2cc(C)ccc2C)c1 (centres undefined) | 90 | <50 |  | Activity [5]: 90%
COC(C(=O)N(C)C)c1cccc(COc2cc(C)ccc2C)c1 (centres undefined) | 90 | <50 |  | Activity [4]: 90%
CNC(=O)C(OC)c1cccc(CSc2cc(C)ccc2C)c1 (centres undefined) | <90 | <50 | 90 | 
CNC(=O)C(OC)c1cccc(Oc2ccc(Cl)cc2)c1 (centres undefined) | <90 | <50 | <90 | 
CNC(=O)C(OC)c1cccc(OCc2ccc(Cl)cc2)c1 (centres undefined) | <90 | <50 | <90 | 
CNC(=O)C(OC)c1cccc(COC(=O)c2ccc(Cl)cc2)c1 (centres undefined) | <90 | <50 | <90 | 
OC(c1ccc(Cl)cc1)(c1cncnc1)c1ccccc1Cl (centres undefined) [FENARIMOL] |  |  |  | Activity [9]: 80%; Activity [10]: 99%; Activity [11]: 99%; Activity [12]: 100%; Activity [13]: 0%; Activity [14]: 80%; Activity [15]: 95%; Activity [16]: 100%
CC(C)Oc1cccc(NC(=O)c2ccccc2C(F)(F)F)c1 [FLUTOLANIL] |  |  |  | Activity [17]: 40%; Activity [18]: 70%; Activity [19]: 80%; Activity [20]: 80%; Activity [21]: 20%; Activity [22]: 70%; Activity [23]: 80%; Activity [24]: 90%
